Experimental data as given in PubChem BioAssay (NCI).
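Briefly, cells in 96-well plates were exposed to five compound concentrations for 48 h, and endpoints were estimated by linear interpolation. At the TGI there is no net growth.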

Experiments:
Experiment in all cases: growth of human tumour cells (NCI), 48 h
786-0 renal = system: 786-0 renal
A498 renal = system: A498 renal
A549 NSCLC = system: A549 NSCLC
ACHN renal = system: ACHN renal
BT-549 breast = system: BT-549 breast
CAKI-1 renal = system: CAKI-1 renal
CCRF-CEM leukemia = system: CCRF-CEM leukemia
COLO 205 colon = system: COLO 205 colon
DU-145 prostate = system: DU-145 prostate
EKVX NSCLC = system: EKVX NSCLC
HCT-116 colon = system: HCT-116 colon
HCT-15 colon = system: HCT-15 colon
HL-60(TB) leukemia = system: HL-60(TB) leukemia
HOP-62 NSCLC = system: HOP-62 NSCLC
HOP-92 NSCLC = system: HOP-92 NSCLC
HS 578T breast = system: HS 578T breast
HT29 colon = system: HT29 colon
IGROV1 ovarian = system: IGROV1 ovarian
K-562 leukemia = system: K-562 leukemia
KM12 colon = system: KM12 colon
LOX IMVI melanoma = system: LOX IMVI melanoma
M14 melanoma = system: M14 melanoma
MALME-3M melanoma = system: MALME-3M melanoma
MCF7 breast = system: MCF7 breast
MDA-MB-231 breast = system: MDA-MB-231 breast
MDA-MB-435 = system: MDA-MB-435
MDA-N = system: MDA-N
MOLT-4 leukemia = system: MOLT-4 leukemia
NCI-H226 lung = system: NCI-H226 lung
NCI-H23 lung = system: NCI-H23 lung
NCI-H460 lung = system: NCI-H460 lung
NCI-H522 lung = system: NCI-H522 lung
NCI/ADR-RES ovarian = system: NCI/ADR-RES ovarian
OVCAR-3 ovarian = system: OVCAR-3 ovarian
OVCAR-4 ovarian = system: OVCAR-4 ovarian
OVCAR-5 ovarian = system: OVCAR-5 ovarian
OVCAR-8 ovarian = system: OVCAR-8 ovarian
PC-3 prostate = system: PC-3 prostate
RPMI-8226 leukemia = system: RPMI-8226 leukemia
RXF 393 renal = system: RXF 393 renal
SF-268 CNS = system: SF-268 CNS
SF-295 CNS = system: SF-295 CNS
SF-539 CNS = system: SF-539 CNS
SK-MEL-2 melanoma = system: SK-MEL-2 melanoma
SK-MEL-28 melanoma = system: SK-MEL-28 melanoma
SK-MEL-5 melanoma = system: SK-MEL-5 melanoma
SK-OV-3 ovarian = system: SK-OV-3 ovarian
SN12C renal = system: SN12C renal
SNB-19 CNS = system: SNB-19 CNS
SNB-75 CNS = system: SNB-75 CNS
SR leukemia = system: SR leukemia
SW-620 colon = system: SW-620 colon
T-47D breast = system: T-47D breast
TK-10 renal = system: TK-10 renal
U251 CNS = system: U251 CNS
UACC-257 melanoma = system: UACC-257 melanoma
UACC-62 melanoma = system: UACC-62 melanoma
UO-31 renal = system: UO-31 renal
HCC-2998 colon = system: HCC-2998 colon

For CC(Br)C(=O)Nc1ccc(C(=O)O)c(O)c1 (centres undefined), which TGI (786-0 renal) is on record?
The TGI was greater than 100 µM.

And the TGI (A498 renal)?
The TGI was greater than 100 µM.

And the TGI (A549 NSCLC)?
Its TGI is greater than 100 µM.

And the TGI (ACHN renal)?
Its TGI is greater than 100 µM.

And the TGI (BT-549 breast)?
The TGI was greater than 100 µM.

What about the TGI (CAKI-1 renal) of the same compound?
The TGI was greater than 100 µM.

What about the TGI (CCRF-CEM leukemia) of the same compound?
The TGI was 43.6 µM.

What about the TGI (COLO 205 colon) of the same compound?
Its TGI is greater than 100 µM.

What about the TGI (DU-145 prostate) of the same compound?
Its TGI is greater than 100 µM.

What about the TGI (EKVX NSCLC) of the same compound?
The TGI was greater than 100 µM.

What about the TGI (HCT-116 colon) of the same compound?
The TGI was greater than 100 µM.

And the TGI (HCT-15 colon)?
Its TGI is greater than 100 µM.

And the TGI (HL-60(TB) leukemia)?
The TGI was greater than 100 µM.

What about the TGI (HOP-62 NSCLC) of the same compound?
The TGI was greater than 100 µM.

And the TGI (HOP-92 NSCLC)?
Its TGI is greater than 100 µM.

And the TGI (HS 578T breast)?
Its TGI is greater than 100 µM.

What about the TGI (HT29 colon) of the same compound?
Its TGI is greater than 100 µM.

What about the TGI (IGROV1 ovarian) of the same compound?
Its TGI is greater than 100 µM.

What about the TGI (K-562 leukemia) of the same compound?
Its TGI is greater than 100 µM.

What about the TGI (KM12 colon) of the same compound?
The TGI was greater than 100 µM.

What about the TGI (LOX IMVI melanoma) of the same compound?
Its TGI is greater than 100 µM.

And the TGI (M14 melanoma)?
The TGI was greater than 100 µM.

And the TGI (MALME-3M melanoma)?
The TGI was 42.1 µM.

And the TGI (MCF7 breast)?
Its TGI is greater than 100 µM.

And the TGI (MDA-MB-231 breast)?
The TGI was greater than 100 µM.

And the TGI (MDA-MB-435)?
The TGI was greater than 100 µM.

And the TGI (MDA-N)?
Its TGI is greater than 100 µM.

What about the TGI (MOLT-4 leukemia) of the same compound?
Its TGI is greater than 100 µM.

And the TGI (NCI-H226 lung)?
Its TGI is greater than 100 µM.

What about the TGI (NCI-H23 lung) of the same compound?
The TGI was 68.9 µM.

What about the TGI (NCI-H460 lung) of the same compound?
The TGI was greater than 100 µM.

What about the TGI (NCI-H522 lung) of the same compound?
The TGI was 47.1 µM.

What about the TGI (NCI/ADR-RES ovarian) of the same compound?
The TGI was greater than 100 µM.

And the TGI (OVCAR-3 ovarian)?
The TGI was 73.7 µM.

And the TGI (OVCAR-4 ovarian)?
Its TGI is greater than 100 µM.

And the TGI (OVCAR-5 ovarian)?
Its TGI is greater than 100 µM.

And the TGI (OVCAR-8 ovarian)?
The TGI was greater than 100 µM.

And the TGI (PC-3 prostate)?
Its TGI is greater than 100 µM.

What about the TGI (RPMI-8226 leukemia) of the same compound?
The TGI was greater than 100 µM.

And the TGI (RXF 393 renal)?
The TGI was greater than 100 µM.

What about the TGI (SF-268 CNS) of the same compound?
The TGI was greater than 100 µM.

And the TGI (SF-295 CNS)?
The TGI was greater than 100 µM.

And the TGI (SF-539 CNS)?
The TGI was greater than 100 µM.

What about the TGI (SK-MEL-2 melanoma) of the same compound?
The TGI was greater than 100 µM.

What about the TGI (SK-MEL-28 melanoma) of the same compound?
Its TGI is greater than 100 µM.

What about the TGI (SK-MEL-5 melanoma) of the same compound?
Its TGI is greater than 100 µM.

And the TGI (SK-OV-3 ovarian)?
The TGI was greater than 100 µM.

What about the TGI (SN12C renal) of the same compound?
The TGI was 66.1 µM.

And the TGI (SNB-19 CNS)?
Its TGI is greater than 100 µM.

What about the TGI (SNB-75 CNS) of the same compound?
The TGI was greater than 100 µM.

What about the TGI (SR leukemia) of the same compound?
Its TGI is greater than 100 µM.

And the TGI (SW-620 colon)?
The TGI was greater than 100 µM.

What about the TGI (T-47D breast) of the same compound?
The TGI was greater than 100 µM.

And the TGI (TK-10 renal)?
The TGI was greater than 100 µM.

And the TGI (U251 CNS)?
The TGI was 62.8 µM.

What about the TGI (UACC-257 melanoma) of the same compound?
The TGI was greater than 100 µM.

What about the TGI (UACC-62 melanoma) of the same compound?
Its TGI is greater than 100 µM.

And the TGI (UO-31 renal)?
The TGI was greater than 100 µM.

How did the TGI (786-0 renal) turn out when C[C@]12CC[C@H](O)CC1=CC[C@@H]1C2CC[C@]2(C)Nc3c(cnn3-c3ccc(F)cc3)CC12 (some centres undefined) was run?
The TGI was 16 µM.

What about the TGI (A498 renal) of the same compound?
Its TGI is greater than 47.6 µM.

What about the TGI (A549 NSCLC) of the same compound?
The TGI was greater than 100 µM.

And the TGI (ACHN renal)?
The TGI was greater than 100 µM.

What about the TGI (BT-549 breast) of the same compound?
The TGI was 38.9 µM.

And the TGI (CAKI-1 renal)?
Its TGI is greater than 100 µM.

And the TGI (CCRF-CEM leukemia)?
Its TGI is greater than 100 µM.

What about the TGI (DU-145 prostate) of the same compound?
The TGI was greater than 100 µM.

What about the TGI (EKVX NSCLC) of the same compound?
Its TGI is greater than 100 µM.

And the TGI (HCC-2998 colon)?
Its TGI is greater than 100 µM.

What about the TGI (HCT-116 colon) of the same compound?
The TGI was greater than 100 µM.

What about the TGI (HCT-15 colon) of the same compound?
The TGI was greater than 100 µM.

And the TGI (HL-60(TB) leukemia)?
The TGI was greater than 100 µM.

What about the TGI (HOP-62 NSCLC) of the same compound?
The TGI was 61.1 µM.

What about the TGI (HOP-92 NSCLC) of the same compound?
Its TGI is 63.6 µM.

What about the TGI (HS 578T breast) of the same compound?
The TGI was 22.2 µM.

What about the TGI (HT29 colon) of the same compound?
The TGI was greater than 100 µM.

And the TGI (IGROV1 ovarian)?
Its TGI is greater than 100 µM.

And the TGI (K-562 leukemia)?
Its TGI is greater than 100 µM.

What about the TGI (KM12 colon) of the same compound?
Its TGI is greater than 100 µM.

What about the TGI (LOX IMVI melanoma) of the same compound?
Its TGI is greater than 100 µM.

What about the TGI (M14 melanoma) of the same compound?
The TGI was greater than 100 µM.

What about the TGI (MALME-3M melanoma) of the same compound?
The TGI was greater than 100 µM.

And the TGI (MCF7 breast)?
Its TGI is greater than 100 µM.

What about the TGI (MDA-MB-231 breast) of the same compound?
The TGI was greater than 100 µM.

And the TGI (MDA-MB-435)?
Its TGI is greater than 100 µM.

What about the TGI (MDA-N) of the same compound?
Its TGI is greater than 100 µM.

And the TGI (MOLT-4 leukemia)?
The TGI was greater than 100 µM.

And the TGI (NCI-H226 lung)?
The TGI was greater than 92.7 µM.

And the TGI (NCI-H23 lung)?
Its TGI is greater than 100 µM.

What about the TGI (NCI-H460 lung) of the same compound?
The TGI was greater than 100 µM.

And the TGI (NCI-H522 lung)?
Its TGI is greater than 100 µM.

And the TGI (NCI/ADR-RES ovarian)?
Its TGI is greater than 100 µM.

What about the TGI (OVCAR-3 ovarian) of the same compound?
Its TGI is greater than 100 µM.

What about the TGI (OVCAR-4 ovarian) of the same compound?
The TGI was 55.9 µM.

And the TGI (OVCAR-5 ovarian)?
The TGI was greater than 100 µM.

What about the TGI (OVCAR-8 ovarian) of the same compound?
Its TGI is greater than 100 µM.

And the TGI (PC-3 prostate)?
Its TGI is greater than 100 µM.

And the TGI (RXF 393 renal)?
Its TGI is 7.7 µM.

And the TGI (SF-268 CNS)?
The TGI was greater than 100 µM.

And the TGI (SF-295 CNS)?
The TGI was 6.82 µM.

And the TGI (SF-539 CNS)?
The TGI was 4.44 µM.

What about the TGI (SK-MEL-28 melanoma) of the same compound?
The TGI was greater than 100 µM.

And the TGI (SK-MEL-5 melanoma)?
The TGI was greater than 100 µM.

What about the TGI (SK-OV-3 ovarian) of the same compound?
Its TGI is 57.3 µM.

What about the TGI (SN12C renal) of the same compound?
The TGI was greater than 100 µM.

And the TGI (SNB-19 CNS)?
Its TGI is greater than 100 µM.

What about the TGI (SNB-75 CNS) of the same compound?
The TGI was 16.5 µM.

And the TGI (SR leukemia)?
The TGI was greater than 100 µM.

What about the TGI (SW-620 colon) of the same compound?
Its TGI is greater than 100 µM.

And the TGI (T-47D breast)?
The TGI was greater than 100 µM.

And the TGI (TK-10 renal)?
The TGI was greater than 100 µM.

What about the TGI (U251 CNS) of the same compound?
The TGI was greater than 100 µM.

What about the TGI (UACC-257 melanoma) of the same compound?
Its TGI is greater than 100 µM.

What about the TGI (UACC-62 melanoma) of the same compound?
Its TGI is greater than 100 µM.

What about the TGI (UO-31 renal) of the same compound?
Its TGI is greater than 92.4 µM.
